Results: patent US9199962B2, “Substituted azaheterocycles for the treatment of cancer” (Merck Patent GmbH, priority 2011, dated 2015)
Like-named read-outs stand apart in the source and are kept apart here.

Tests used:
[1] = molecular target: T1, focal adhesion kinase (FAK) autophosphorylation at tyrosine 397 in HT29 cells (Homo sapiens, UniProt Q05397); assay: Cellular testing of FAK inhibitors: FAK autophosphorylation at tyrosine 397 in HT29 cells (Luminex-based assay); format: cell-based; settings: 30 min serum-free, read-out: HT-29 IC50
T1 construct: endogenous in cells; host or cells: HT29
T1 sequence (Q05397 whole entry): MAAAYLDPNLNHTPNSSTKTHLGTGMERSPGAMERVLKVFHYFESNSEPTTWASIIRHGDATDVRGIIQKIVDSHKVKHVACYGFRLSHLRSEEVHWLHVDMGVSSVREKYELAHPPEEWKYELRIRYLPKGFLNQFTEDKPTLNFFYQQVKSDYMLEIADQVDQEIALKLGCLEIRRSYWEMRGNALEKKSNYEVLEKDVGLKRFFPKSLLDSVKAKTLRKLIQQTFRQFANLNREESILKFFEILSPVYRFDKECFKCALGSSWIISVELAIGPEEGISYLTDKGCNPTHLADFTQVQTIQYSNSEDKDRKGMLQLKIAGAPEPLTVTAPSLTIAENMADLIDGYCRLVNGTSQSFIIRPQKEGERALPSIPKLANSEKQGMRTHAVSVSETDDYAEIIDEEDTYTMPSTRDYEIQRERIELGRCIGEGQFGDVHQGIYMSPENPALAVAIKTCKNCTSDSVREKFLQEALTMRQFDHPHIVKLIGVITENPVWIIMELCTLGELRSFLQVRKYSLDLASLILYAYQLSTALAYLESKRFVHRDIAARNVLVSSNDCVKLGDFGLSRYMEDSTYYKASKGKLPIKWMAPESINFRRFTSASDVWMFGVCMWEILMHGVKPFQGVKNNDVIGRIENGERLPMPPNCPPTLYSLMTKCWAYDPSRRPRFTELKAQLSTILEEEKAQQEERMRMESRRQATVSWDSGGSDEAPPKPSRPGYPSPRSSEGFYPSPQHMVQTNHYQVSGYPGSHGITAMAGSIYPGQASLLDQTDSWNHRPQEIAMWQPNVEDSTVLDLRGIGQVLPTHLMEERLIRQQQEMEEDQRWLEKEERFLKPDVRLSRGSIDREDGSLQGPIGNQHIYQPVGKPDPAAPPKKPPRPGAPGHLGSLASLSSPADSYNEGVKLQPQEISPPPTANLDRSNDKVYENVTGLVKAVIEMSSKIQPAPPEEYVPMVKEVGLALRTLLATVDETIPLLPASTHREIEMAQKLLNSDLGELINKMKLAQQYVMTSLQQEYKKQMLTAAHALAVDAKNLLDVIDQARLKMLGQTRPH
Procedure: 2. Assay Principle for Celluar Testing of FAK Inhibitors
Cellular activity of focal adhesion kinase (FAK) is determined by the degree of FAK autophosphorylation at tyrosine 397 using a Luminex-based assay. HT29 cells are plated with 30,000 cells per well of a 96-well plate in 100 μl medium (90% DMEM/10% FCS). At the following day, test compounds are added in a serial dilution under serum-free conditions for 30 min. Then, cells were lysed with 90 μl lysis buffer (20 mM Tris/HCl pH 8.0, 150 mM NaCl, 1% NP40, 10% Glycerol, 1% Phosphatase-Inhibitor II, 20 mM […]-Glycerolphosphat, 0.1% Protease-Inhibitor Cocktail III, 0.01% Benzonase) and lysates were cleared by centrifugation through a 96-well filter plate (0.65 μm). Samples were incubated with Luminex-beads which were coupled with an anti-total FAK antibody overnight at 4° C. with under gentle agitation. For detection of phospho-Y397-FAK a phosphospecific antibody and a species specific PE-labeled secondary antibody are added. The amount of phospho-Y397-FAK is determined in a Luminex100 machine measuring 100 events per well within 60 seconds.
Counts from samples treated with a FAK reference inhibitor are subtracted as pharmacological blank. Counts from samples treated with test compounds are calculated as percent of control from solvent treated (0.3% DMSO) samples. IC50 values were determined using AssayExplorer software.

[2] = molecular target: T2, GST-FAK (N-terminal GST fusion with truncated human FAK (376-1052 (end) amino acids)) (Homo sapiens, UniProt Q05397); assay: Biochemical enzyme assay for FAK activity (Caliper LC3000 mobility shift); settings: 100 uM ATP, read-out: FAK IC50
T2 construct: truncated human FAK (376-1052 (end) amino acids)
T2 sequence (Q05397 376-1052): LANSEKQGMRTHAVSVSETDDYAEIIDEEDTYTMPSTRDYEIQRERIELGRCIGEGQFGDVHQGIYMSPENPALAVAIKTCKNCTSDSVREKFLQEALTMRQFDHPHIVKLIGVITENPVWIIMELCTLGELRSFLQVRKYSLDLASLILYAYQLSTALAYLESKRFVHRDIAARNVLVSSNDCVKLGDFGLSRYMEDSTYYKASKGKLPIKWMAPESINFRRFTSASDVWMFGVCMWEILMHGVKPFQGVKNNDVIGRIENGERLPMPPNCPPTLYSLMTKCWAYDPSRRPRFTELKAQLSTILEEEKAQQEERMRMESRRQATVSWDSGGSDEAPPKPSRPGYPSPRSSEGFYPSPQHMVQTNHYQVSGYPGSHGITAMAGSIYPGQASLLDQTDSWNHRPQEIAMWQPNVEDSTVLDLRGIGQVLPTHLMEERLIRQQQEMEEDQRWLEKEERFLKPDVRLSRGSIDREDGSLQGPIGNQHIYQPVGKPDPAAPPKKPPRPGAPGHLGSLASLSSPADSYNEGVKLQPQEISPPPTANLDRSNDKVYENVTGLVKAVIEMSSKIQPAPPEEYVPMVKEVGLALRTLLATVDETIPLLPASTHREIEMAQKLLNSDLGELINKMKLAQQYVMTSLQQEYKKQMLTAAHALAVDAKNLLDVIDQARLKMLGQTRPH
Summary of the method: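 Inhibitor dose series in DMSO were incubated 90 min at 25 °C with truncated GST-tagged human FAK (0.067 ng/µl) and FITC-labelled peptide substrate (1 µM), with ATP at 100 µM and FERM peptide at 1 mM (pH 7.5 HEPES). After EDTA quench, phosphorylated and unphosphorylated peptides were resolved electrophoretically. Percent conversion was fitted for IC50.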

Row | Compound | IC50 ([1]; Table 2, phospho-Y397-FAK) [nM] | IC50 ([2]; Table 2) [nM] | IC50 ([1]; Table 3, phospho-Y397-FAK) [nM] | IC50 ([2]; Table 3) [nM]
1 | CN1CCC(CNC(=O)c2cc(NCc3ccc(F)cc3F)nc(-c3cncc(C(F)(F)F)c3)n2)C1 (stereo not shown) [Compound 51, 6-(2,4-Difluoro-benzylamino)-2-(5-trifluoromethyl-pyridin-3-yl)-pyrimidine-4-carboxylic acid (1-methyl-pyrrolidin-3-ylmethyl)-amide] | 1000 to 10000 | < 100 | – | –
2 | O=C(NCCc1c[nH]cn1)c1cc(NCc2ccc(F)cc2F)nc(-c2cncc(C(F)(F)F)c2)n1 [Compound 52, 6-(2,4-Difluoro-benzylamino)-2-(5-trifluoromethyl-pyridin-3-yl)-pyrimidine-4-carboxylic acid [2-(1H-imidazol-4-yl)-ethyl]-amide] | 1000 to 10000 | < 100 | – | –
3 | CN(C)CCCCNC(=O)c1cc(NCc2ccc(F)cc2F)nc(-c2cncc(C(F)(F)F)c2)n1 [Compound 53, 6-(2,4-Difluoro-benzylamino)-2-(5-trifluoromethyl-pyridin-3-yl)-pyrimidine-4-carboxylic acid (4-dimethylamino-butyl)-amide] | 1000 to 10000 | < 100 | – | –
4 | CN1CCC(NC(=O)c2cc(NCc3ccc(F)cc3F)nc(-c3cncc(C(F)(F)F)c3)n2)CC1 [Compound 54, 6-(2,4-Difluoro-benzylamino)-2-(5-trifluoromethyl-pyridin-3-yl)-pyrimidine-4-carboxylic acid (1-methyl-piperidin-4-yl)-amide] | 1000 to 10000 | < 100 | – | –
5 | NC(=O)C1CCCN(c2cc(NCc3ccc(F)cc3F)nc(-c3cncc(C(F)(F)F)c3)n2)C1 (stereo not shown) [Compound 55, 1-[6-(2,4-Difluoro-benzylamino)-2-(5-trifluoromethyl-pyridin-3-yl)-pyrimidin-4-yl]-piperidine-3-carboxylic acid amide] | 1000 to 10000 | 100 to 1000 | – | –
6 | Fc1ccc(CNc2cc(NCCCn3ccnc3)nc(-c3cncc(C(F)(F)F)c3)n2)c(F)c1 [Compound 56, N-(2,4-Difluoro-benzyl)-N′-(3-imidazol-1-yl-propyl)-2-(5-trifluoromethyl-pyridin-3-yl)-pyrimidine-4,6-diamine] | 1000 to 10000 | 100 to 1000 | – | –
7 | O=C1CCCN1CCCNc1cc(NCc2ccc(F)cc2F)nc(-c2cncc(C(F)(F)F)c2)n1 [Compound 57, 1-{3-[6-(2,4-Difluoro-benzylamino)-2-(5-trifluoromethyl-pyridin-3-yl)-pyrimidin-4-ylamino]-propyl}-pyrrolidin-2-one] | 1000 to 10000 | 100 to 1000 | – | –
8 | Fc1ccc(CNc2cc(NCCCN3CCOCC3)nc(-c3cncc(C(F)(F)F)c3)n2)c(F)c1 [Compound 58, N-(2,4-Difluoro-benzyl)-N′-(3-morpholin-4-yl-propyl)-2-(5-trifluoromethyl-pyridin-3-yl)-pyrimidine-4,6-diamine] | 1000 to 10000 | < 100 | – | –
9 | NC(=O)C1CCN(c2cc(NCc3ccc(F)cc3F)nc(-c3cncc(C(F)(F)F)c3)n2)CC1 [Compound 59, 1-[6-(2,4-Difluoro-benzylamino)-2-(5-trifluoromethyl-pyridin-3-yl)-pyrimidin-4-yl]-piperidine-4-carboxylic acid amide] | 1000 to 10000 | 100 to 1000 | – | –
10 | CN(C)CCCNc1cc(NCc2ccc(F)cc2F)nc(-c2cncc(C(F)(F)F)c2)n1 [Compound 60, N-(2,4-Difluoro-benzyl)-N′-(3-dimethylamino-propyl)-2-(5-trifluoromethyl-pyridin-3-yl)-pyrimidine-4,6-diamine] | 1000 to 10000 | < 100 | – | –
11 | CCN(CC)C(=O)CCNc1cc(NCc2ccc(F)cc2F)nc(-c2cncc(C(F)(F)F)c2)n1 [Compound 62, 3-[6-(2,4-Difluoro-benzylamino)-2-(5-trifluoromethyl-pyridin-3-yl)-pyrimidin-4-ylamino]-N,N-diethyl-propionamide] | 1000 to 10000 | 100 to 1000 | – | –
12 | O=C(CCNc1cc(NCc2ccc(F)cc2F)nc(-c2cncc(C(F)(F)F)c2)n1)N1CCOCC1 [Compound 63, 3-[6-(2,4-Difluoro-benzylamino)-2-(5-trifluoromethyl-pyridin-3-yl)-pyrimidin-4-ylamino]-1-morpholin-4-yl-propan-1-one] | 1000 to 10000 | 100 to 1000 | – | –
13 | CN1CCN(C(=O)CCNc2cc(NCc3ccc(F)cc3F)nc(-c3cncc(C(F)(F)F)c3)n2)CC1 [Compound 64, 3-[6-(2,4-Difluoro-benzylamino)-2-(5-trifluoromethyl-pyridin-3-yl)-pyrimidin-4-ylamino]-1-(4-methyl-piperazin-1-yl)-propan-1-one] | 1000 to 10000 | 100 to 1000 | – | –
14 | CN(C)CCCCNc1cc(NCc2ccc(F)cc2F)nc(-c2cncc(C(F)(F)F)c2)n1 [Compound 65, N-(2,4-Difluoro-benzyl)-N′-(4-dimethylamino-butyl)-2-(5-trifluoromethyl-pyridin-3-yl)-pyrimidine-4,6-diamine] | > 10000 | 100 to 1000 | – | –
15 | NC(=O)CNC(=O)c1cc(NCc2ccc(F)cc2F)nc(-c2cncc(C(F)(F)F)c2)n1 [Compound 72, 6-(2,4-Difluoro-benzylamino)-2-(5-trifluoromethyl-pyridin-3-yl)-pyrimidine-4-carboxylic acid carbamoylmethyl-amide] | 100 to 1000 | < 100 | – | –
16 | Nc1ncccc1-c1nccc(NCc2ccccc2C(F)(F)F)n1 [Compound 77, 2-(2-Aminopyridin-3-yl)-N-[2-(trifluoromethyl)benzyl]pyrimidin-4-amine] | – | – | > 10000 | 100 to 1000
17 | FC(F)(F)c1ccccc1CNc1ccnc(-c2cccnc2)n1 [Compound 89, 2-Pyridin-3-yl-N-[2-(trifluoromethyl)benzyl]pyrimidin-4-amine] | – | – | > 10000 | 100 to 1000
18 | Nc1ncccc1-c1nccc(NCc2ccc(F)cc2F)n1 [Compound 98, 2-(2-Aminopyridin-3-yl)-N-(2,4-difluorobenzyl)pyrimidin-4-amine] | – | – | > 10000 | 100 to 1000
19 | Fc1cncc(-c2nccc(NCc3ccccc3C(F)(F)F)n2)c1 [Compound 107, 2-(5-Fluoropyridin-3-yl)-N-[2-(trifluoromethyl)benzyl]pyrimidin-4-amine] | – | – | > 10000 | 100 to 1000
20 | FC(F)(F)c1ccccc1CNc1ccnc(-c2cncc(Cl)c2)n1 [Compound 108, 2-(5-Chloropyridin-3-yl)-N-[2-(trifluoromethyl)benzyl]pyrimidin-4-amine] | – | – | 1000 to 10000 | < 100
21 | Nc1ncccc1-c1nccc(NCc2ccc(F)cc2C(F)(F)F)n1 [Compound 110, 2-(2-Aminopyridin-3-yl)-N-[4-fluoro-2-(trifluoromethyl)benzyl]pyrimidin-4-amine] | – | – | 1000 to 10000 | < 100
22 | FC(F)(F)c1cncc(-c2nccc(NCc3ccccc3C(F)(F)F)n2)c1 [Compound 112, N-[2-(Trifluoromethyl)benzyl]-2-[5-(trifluoromethyl)pyridin-3-yl]pyrimidin-4-amine] | – | – | 1000 to 10000 | < 100
23 | Fc1ccc(CNc2ccnc(-c3cncc(Cl)c3)n2)c(F)c1 [Compound 114, 2-(5-Chloropyridin-3-yl)-N-(2,4-difluorobenzyl)pyrimidin-4-amine] | – | – | 100 to 1000 | < 100
24 | CC(Nc1ccnc(-c2cccnc2N)n1)c1ccccc1C(F)(F)F (stereo not shown) [Compound 115, 2-(2-Aminopyridin-3-yl)-N-{1-[2-(trifluoro-methyl)phenyl]ethyl}pyrimidin-4-amine] | – | – | > 10000 | 100 to 1000
25 | FC(F)(F)c1cc(Cl)ccc1CNc1ccnc(-c2cncc(Cl)c2)n1 [Compound 118, 2-(5-Chloropyridin-3-yl)-N-[4-chloro-2-(trifluoromethyl)benzyl]pyrimidin-4-amine] | – | – | 1000 to 10000 | < 100
26 | Fc1ccc(CNc2ccnc(-c3cncc(Cl)c3)n2)c(C(F)(F)F)c1 [Compound 119, 2-(5-Chloropyridin-3-yl)-N-[4-fluoro-2-(trifluoromethyl)benzyl]pyrimidin-4-amine] | – | – | 1000 to 10000 | < 100
27 | Fc1ccc(CNc2ccnc(-c3cncc(C(F)(F)F)c3)n2)c(C(F)(F)F)c1 [Compound 123, N-[4-Fluoro-2-(trifluoromethyl)benzyl]-2-[5-(trifluoromethyl)pyridin-3-yl]pyrimidin-4-amine] | – | – | 1000 to 10000 | < 100
28 | CC(Nc1ccnc(-c2cncc(Cl)c2)n1)c1ccccc1C(F)(F)F (stereo not shown) [Compound 124, 2-(5-Chloropyridin-3-yl)-N-{1-[2-(trifluoromethyl)phenyl]ethyl}pyrimidin-4-amine] | – | – | 1000 to 10000 | < 100
29 | Fc1ccc(CNc2ccnc(-c3cncc(C(F)(F)F)c3)n2)c(F)c1 [Compound 125, N-(2,4-Difluorobenzyl)-2-[5-(trifluoromethyl)pyridin-3-yl]pyrimidin-4-amine] | – | – | 1000 to 10000 | < 100
